Source: ChEMBL document CHEMBL5375968, “Peptide TK-HR from the Skin of Chinese Folk Medicine Frog Hoplobatrachus Rugulosus Accelerates Wound Healing via the Activation of the Neurokinin-1 Receptor” (J Med Chem, 2023)
Activity calls are given as the source filed them. The rule behind the calls is not given here.

Tests used:
[1] = Induction of wound healing in BALB/c mouse model of full-thickness wounds assessed as alpha-SMA level below wound surface at 50 to 200 ug/ml, TOP bid measured after 8 days by IHC analysis (reference value: 16.4 %); assay type: functional; conditions: dose 50-200 µg/ml, time 8 day, at 50 to 200 µg/mL
RAW264.7 [2] = assay: Induction of cell migration in mouse RAW264.7 cells incubated for 24 hrs by crystal violet staining based microscopy; assay type: functional; conditions: dose 5-20 µM
Mus musculus [3] = organism: Mus musculus; assay: Induction of wound healing in BALB/c mouse model of full-thickness wounds assessed as increase in number of blood vessels in wound skin at 50 ug/ml, TOP bid measured after 4 days by IHC analysis; assay type: functional; conditions: dose 50.0 µg/ml, time 4.0 day
RAW264.7 [4] = assay: Induction of phagocytosis in mouse RAW264.7 cells cultured with Escherichia coli ATCC 25922 assessed as number of surviving engulfed bacteria at 2.5 uM incubated for 24 hrs followed by bacterial exposure for 1 hr and further treated with gentamycin for 2 hrs by plate counting method (reference value: 37); assay type: functional; conditions: time 27 hrs
Bacillus subtilis = assay: Antimicrobial activity against Bacillus subtilis CMCC 63501 assessed as microbial growth inhibition at 100 uM; assay type: functional, organism-based
Mast cell = assay: Inhibition of degranulation in mast cells (unknown origin) assessed as beta- hexosaminidase release upto 40 uM; assay type: functional, cell-based
RAW264.7 [5] = assay: Induction of phagocytosis in mouse RAW264.7 cells cultured with Escherichia coli ATCC 25922 assessed as number of surviving engulfed bacteria at 20 uM incubated for 24 hrs followed by bacterial exposure for 1 hr and further treated with gentamycin for 2 hrs by plate counting method (reference value: 37); assay type: functional
[6] = Induction of TGF-beta1 level in Aprepitant-treated mouse RAW264.7 cells at 10 uM incubated for 24 hrs by ELISA; assay type: functional
Candida albicans = assay: Antimicrobial activity against Candida albicans ATCC 10231 assessed as microbial growth inhibition at 100 uM; assay type: functional, organism-based
[7] = Induction of TGF-beta1 level in Aprepitant-treated mouse RAW264.7 cells at 20 uM incubated for 24 hrs by ELISA; assay type: functional
RAW264.7 [8] = assay: Induction of phagocytosis in mouse RAW264.7 cells assessed as increase in neutral red dye uptake by measuring optical density at 540 nm at 2.5 uM incubated for 24 hrs followed by dye addition measured after 4 hrs by absorbance based assay (reference value: 0.073); assay type: functional; conditions: time 28 hrs
[9] = Induction of wound healing in BALB/c mouse model of full-thickness wounds at 100 ug/ml, TOP bid measured after 2 days (reference value: 30.4 %); assay type: functional; conditions: dose 100 µg/ml, time 2 day
Mus musculus [10] = organism: Mus musculus; assay: Induction of wound healing in BALB/c mouse model of full-thickness wounds assessed as increase in recruitment of M1-type macrophages in wound skin at 50 ug/ml, TOP bid measured after 2 days by IHC analysis; assay type: functional; conditions: dose 50.0 µg/ml, time 2.0 day
HUVEC [11] = assay: Induction of cell migration in HUVEC cells assessed as actin stress fiber formation at peripheral side of cytoplasmic membrane at 20 uM measured after 24 hrs by immunofluorescence microscopy; assay type: functional, cell-based; conditions: Homo sapiens
RAW264.7 [12] = assay: Induction of TNF-alpha expression in mouse RAW264.7 cells incubated for 24 hrs by ELISA; assay type: functional, cell-based; conditions: dose 2.5-20 µM
HaCaT [13] = assay: Induction of cell migration in Mitomycin C-treated human HaCaT cells assessed as healing rate at 20 uM measured after 48 hrs by scratch healing assay (reference value: 25.7 %); assay type: functional
HaCaT [14] = assay: Induction of cell migration in human HaCaT cells assessed as healing rate at 20 uM measured after 48 hrs by scratch healing assay (reference value: 63.1 %); assay type: functional
RAW264.7 [15] = assay: Induction of phagocytosis in mouse RAW264.7 cells assessed as increase in neutral red dye uptake by measuring optical density at 540 nm at 5 uM incubated for 24 hrs followed by dye addition measured after 4 hrs by absorbance based assay (reference value: 0.073); assay type: functional; conditions: time 28 hrs
RAW264.7 [16] = assay: Induction of MCP-1 expression in mouse RAW264.7 cells incubated for 24 hrs by ELISA; assay type: functional, cell-based; conditions: dose 2.5-20 µM
RAW264.7 [17] = assay: Upregulation of phosphorylated JNK level in mouse RAW264.7 cells at 2.5 to 20 uM incubated for 4 hrs by Western blot analysis; assay type: functional, cell-based; conditions: dose 2.5-20 µM
[18] = Toxicity in BALB/c mouse model of full-thickness wounds assessed as inflammatory foci in kidney at 200 ug/ml, TOP bid measured upto 8 days by H and E staining based analysis; assay type: tissue-based; conditions: in vivo, topical_or_ocular, 192 h, dose 200 µg/ml, time < 8 day
HUVEC [19] = assay: Angiogenic activity in HUVEC cells assessed as increase in tube formation at 20 uM measured for 4 hrs by microscopic analysis relative to control; assay type: functional, Homo sapiens
[20] = Induction of wound healing in BALB/c mouse model of full-thickness wounds at 200 ug/ml, TOP bid measured after 6 days (reference value: 71.7 %); assay type: functional; conditions: dose 200 µg/ml, time 6 day
Mus musculus [21] = organism: Mus musculus; assay: Induction of wound healing in BALB/c mouse model of full-thickness wounds assessed as […] in IL-10 level in wound skin at 50 ug/ml, TOP bid measured after 2 days by ELISA; assay type: functional; conditions: dose 50.0 µg/ml, time 2.0 day
HaCaT [22] = assay: Induction of cell migration in Aprepitant-treated human HaCaT cells assessed as healing rate at 20 uM measured after 48 hrs by scratch healing assay (reference value: 63.1 %); assay type: functional
Mus musculus [23] = organism: Mus musculus; assay: Induction of wound healing in BALB/c mouse model of full-thickness wounds assessed as dense arrangement of collagen fibers at 50 to 200 ug/ml, TOP bid measured after 8 days by Masson's Trichome staining based analysis; assay type: functional; conditions: dose 50-200 µg/ml, time 8.0 day
RAW264.7 [24] = assay: Induction of phagocytosis in mouse RAW264.7 cells cultured with Escherichia coli ATCC 25922 assessed as number of surviving engulfed bacteria at 5 uM incubated for 24 hrs followed by bacterial exposure for 1 hr and further treated with gentamycin for 2 hrs by plate counting method (reference value: 37); assay type: functional
Mus musculus [25] = organism: Mus musculus; assay: Induction of wound healing in BALB/c mouse model of full-thickness wounds assessed as increase in recruitment of M2-type macrophages in wound skin at 50 ug/ml, TOP bid measured after 4 days by IHC analysis; assay type: functional; conditions: dose 50.0 µg/ml, time 4.0 day
[26] = Toxicity in BALB/c mouse model of full-thickness wounds assessed as inflammatory foci in liver at 200 ug/ml, TOP bid measured upto 8 days by H and E staining based analysis; assay type: tissue-based; conditions: in vivo, topical_or_ocular, 192 h, dose 200 µg/ml, time < 8 day
Mus musculus [27] = organism: Mus musculus; assay: Induction of wound healing in BALB/c mouse model of full-thickness wounds assessed as alignment of collagen fibers close to normal skin at 50 to 200 ug/ml, TOP bid measured after 8 days by Masson's Trichome staining based analysis; assay type: functional; conditions: dose 50-200 µg/ml, time 8.0 day
Mus musculus [28] = organism: Mus musculus; assay: Induction of wound healing in BALB/c mouse model of full-thickness wounds assessed as parallel alignment of collagen fibers at 50 to 200 ug/ml, TOP bid measured after 8 days by Masson's Trichome staining based analysis; assay type: functional; conditions: dose 50-200 µg/ml, time 8.0 day
[29] = Induction of wound healing in BALB/c mouse model of full-thickness wounds at 200 ug/ml, TOP bid measured after 8 days (reference value: 81.0 %); assay type: functional; conditions: dose 200 µg/ml, time 8 day

What does the source list for H-KPNPDRFYGLM-NH2?
Activity [1]: 40.4%; Activity (RAW264.7 [2]): Dose-Dependent Effect; Activity (Mus musculus [3]): Active; Activity (RAW264.7 [4]): 30; Activity (Bacillus subtilis): inactive; inhibition (Mast cell): Active; Activity (RAW264.7 [5]): 20; Activity [6]: 43.7 pg/mL; Activity (Candida albicans): inactive; Activity [7]: 46.7 pg/mL; OD (RAW264.7 [8]): 0.097; Activity [9]: 46.6%; Activity (Mus musculus [10]): Active; Activity (HUVEC [11]): Active; Activity (RAW264.7 [12]): Dose-Dependent Effect; Activity (HaCaT [13]): 53%; Activity (HaCaT [14]): 92.8%; OD (RAW264.7 [15]): 0.103; Activity (RAW264.7 [16]): Dose-Dependent Effect; Activity (RAW264.7 [17]): Active; Activity [18]: Non-Toxic; Activity (HUVEC [19]): 181.4%; Activity [20]: 100%; Activity (Mus musculus [21]): Active; Activity (HaCaT [22]): 76.1%; Activity (Mus musculus [23]): Active; Activity (RAW264.7 [24]): 29; Activity (Mus musculus [25]): Active; Activity [26]: Non-Toxic; Activity (Mus musculus [27]): Active; Activity (Mus musculus [28]): Active; Activity [29]: 100%
